For seven compounds, mortality and inhibition results are on record in US11116218B2, “Isoxazole compound or a salt thereof” (OAT AGRIO CO., LTD., priority 2017, dated 2021).

Experiment [1] relates to two-spotted spider mites. Kind of experiment: Miticidal test on two-spotted spider mite (leaf spray). In kind it is in vivo. To be noted: Tetranychus urticae, in Phaseolus vulgaris, 48 h, read-out: Mortality of mites (%). The text has this: A piece of non-woven fabric (4.5×5.5 cm) was suspended inside a plastic cup through an incision made in the lid of the plastic cup. After water was poured into the cup, the cup was covered with the lid. A kidney bean leaf (about 3.5×4.5 cm) was then placed on the sufficiently soaked, non-woven fabric. Another kidney bean leaf with two-spotted spider mites (about 30 mite samples) was placed on top of the first leaf, and the fabric and leaves were placed in a thermostatic chamber having a temperature of 25±2° C. and a humidity of 40% overnight. Next morning the top leaf was removed as the mite population had already moved to the lower leaf.
Miticidal formulations containing the compound of the invention (100 ppm and 5 ppm) were prepared by adding an aqueous solution (100 ppm) of Sorpol 355 (manufactured by Tobo Kagaku Co., Ltd.) to a methanol solution of the compound of the invention. These miticidal formulations were sprayed onto the leaves, and the leaves were air-dried and placed in a thermostatic chamber (25±2° C. and a humidity of 50%). The mortality rate of the two-spotted spider mites was calculated after 2 days.

Experiment [2] relates to two-spotted spider mites. The experiment is described as follows: Ovicidal test on two-spotted spider mites. To be noted: Tetranychus urticae, 144 h; 10 ppm spray, ovicidal rate 6 days after spraying. In kind it is in vivo, two-spotted spider mite. The protocol:
A piece of non-woven fabric (4.5×5.5 cm) was suspended inside a plastic cup through an incision made in the lid of the plastic cup. After water was poured into the cup, the cup was covered with the lid. A kidney bean leaf (about 3.5×4.5 cm) was then placed on the sufficiently soaked, non-woven fabric. Twenty female adults of two-spotted spider mite were placed on the top of the leaf, and the fabric and leaf were placed in a thermostatic chamber having a temperature of 25±2° C. and a humidity of 40% and 16L8D. The next day, after the number of the female adults was adjusted once more to 20, 2 mL of a miticidal formulation containing the compound of the invention (10 ppm) prepared in the same manner as in test example 1 was sprayed onto the leaf, and the leaf was air-dried and placed in a thermostatic chamber (25±2° C. and a humidity of 50%). The ovicidal rate of the two-spotted spider mites was calculated 6 days after the spraying of the miticidal formulation.

Broadly, the mortality is the percentage killed. In general, inhibition refers to how much of the control response was suppressed. Lower therefore signals a weak effect. Turning to `Cc1cc(C)c(-c2cc(C(F)(F)Cl)on2)cc1SCC(F)(F)F` [Compound 49, 5-(chlorodifluoromethyl)-3-(2,4-dimethyl-5-((2,2,2-trifluoroethyl)thio)phenyl)isoxazole], in experiment [1], the mortality at 5 ppm is 6% and the mortality at 100 ppm turned out to be 100%. This compound also returned an inhibition at 10 ppm in experiment [2] of 0%.
On the same counts, the results for `Cc1cc(C)c([S+]([O-])CC(F)(F)F)cc1-c1cc(C(F)(F)Cl)on1` (stereo not drawn) [Compound 50, 5-(chlorodifluoromethyl)-3-(2,4-dimethyl-5-((2,2,2-trifluoroethyl)sulfinyl)phenyl)isoxazole] are 96%, 100% and 97%.
In the same order, the values of `Cc1cc(Cl)c(-c2cc(C(F)(F)c3ccccc3)on2)cc1SCC(F)(F)F` [Compound 52, 3-(2-chloro-4-methyl-5-((2,2,2-trifluoroethyl)thio)phenyl)-5-(difluoro(phenyl)methyl)isoxazole] are 61%, 100% and 32%.
Take `Cc1cc(Cl)c(-c2cc(C(F)(F)c3ccccc3)on2)cc1[S+]([O-])CC(F)(F)F` (stereo not drawn) [Compound 53, 3-(2-chloro-4-methyl-5-((2,2,2-trifluoroethyl)sulfinyl)phenyl)-5-(difluoro(phenyl)methyl)isoxazole]: in experiment [1], the mortality at 5 ppm is 64% and the mortality at 100 ppm was found to be 100%. The inhibition at 10 ppm in experiment [2] amounted to 90%.
In the same order, the values of `Cc1cc(Cl)c(-c2cc(C(F)F)on2)cc1SCC(F)(F)F` [Compound 55, 3-(2-chloro-4-methyl-5-((2,2,2-trifluoroethyl)thio)phenyl)-5-(difluoromethyl)isoxazole] are 100%, 100% and 100%.
On the same counts, the results for `Cc1cc(Cl)c(-c2cc(C(F)F)on2)cc1[S+]([O-])CC(F)(F)F` (stereo not drawn) [Compound 56, 3-(2-chloro-4-methyl-5-((2,2,2-trifluoroethyl)sulfinyl)phenyl)-5-(difluoromethyl)isoxazole] are 100%, 100% and 100%.
On the same counts, the results for `Cc1ccc(-c2cc(C(F)(F)F)on2)cc1SCC(F)(F)F` [Compound A, reference compound] are 0%, 100% and 0%.
